Target: ROCK1 (Homo sapiens, UniProt Q13464)
Assay: Z'-LYTE kinase assay with ROCK1 enzyme, peptide substrate and […] ATP
Assay type: biochemical

Sequence of ROCK1 (Q13464 2-1354): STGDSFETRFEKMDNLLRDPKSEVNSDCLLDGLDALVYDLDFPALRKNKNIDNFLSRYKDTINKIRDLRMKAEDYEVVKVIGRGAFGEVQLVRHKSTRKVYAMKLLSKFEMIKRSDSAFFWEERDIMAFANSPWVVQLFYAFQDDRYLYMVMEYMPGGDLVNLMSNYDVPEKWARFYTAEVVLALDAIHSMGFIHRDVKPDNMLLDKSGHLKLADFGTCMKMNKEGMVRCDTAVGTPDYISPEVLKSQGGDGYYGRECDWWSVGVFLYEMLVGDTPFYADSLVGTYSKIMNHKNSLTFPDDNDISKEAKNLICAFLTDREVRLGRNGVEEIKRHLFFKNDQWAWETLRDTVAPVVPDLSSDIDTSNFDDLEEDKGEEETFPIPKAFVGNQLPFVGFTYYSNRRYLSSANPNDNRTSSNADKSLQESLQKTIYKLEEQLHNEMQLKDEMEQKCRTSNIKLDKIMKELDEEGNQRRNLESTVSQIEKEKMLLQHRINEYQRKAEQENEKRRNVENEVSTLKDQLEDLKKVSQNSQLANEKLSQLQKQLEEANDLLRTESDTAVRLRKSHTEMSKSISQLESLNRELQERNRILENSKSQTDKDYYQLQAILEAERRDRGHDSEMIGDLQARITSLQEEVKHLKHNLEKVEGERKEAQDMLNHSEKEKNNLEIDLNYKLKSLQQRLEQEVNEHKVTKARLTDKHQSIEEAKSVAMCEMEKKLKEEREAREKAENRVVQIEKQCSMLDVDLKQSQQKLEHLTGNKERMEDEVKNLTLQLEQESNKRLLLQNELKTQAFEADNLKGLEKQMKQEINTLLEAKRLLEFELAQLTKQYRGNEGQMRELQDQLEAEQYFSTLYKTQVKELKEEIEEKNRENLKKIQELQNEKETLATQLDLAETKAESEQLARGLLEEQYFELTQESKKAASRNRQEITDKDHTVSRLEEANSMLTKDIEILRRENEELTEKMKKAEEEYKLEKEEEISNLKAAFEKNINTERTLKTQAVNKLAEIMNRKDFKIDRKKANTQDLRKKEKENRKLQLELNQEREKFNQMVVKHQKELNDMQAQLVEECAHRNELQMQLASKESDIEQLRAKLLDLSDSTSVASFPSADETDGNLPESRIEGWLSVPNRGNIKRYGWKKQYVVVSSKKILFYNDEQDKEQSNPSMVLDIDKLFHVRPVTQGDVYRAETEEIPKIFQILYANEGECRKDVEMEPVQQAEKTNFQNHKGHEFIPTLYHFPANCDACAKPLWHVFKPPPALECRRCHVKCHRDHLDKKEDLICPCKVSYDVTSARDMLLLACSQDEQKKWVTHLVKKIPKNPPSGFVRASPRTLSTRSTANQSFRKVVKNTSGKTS

IC50: 11.2 ± 2.2 µM
SMILES: Nc1nc(CN2CCN(c3ccccc3F)CC2)nc(Nc2cccc3ccccc23)n1 [FPND, 6-[4-(2-fluorophenyl)-1-piperazinyl]methyl-N-1-naphthyl-1,3,5-triazine-2,4-diamine]

— publication PMC5563523, “Discovery of a ROCK inhibitor, FPND, which prevents cerebral hemorrhage through maintaining vascular integrity by interference with VE-cadherin” (Cell Death Discovery, 2017)
